Data on five compounds can be found in patent publication US20220144850A1, “INDOLO HEPTAMYL OXIME ANALOGUE AS PARP INHIBITOR” (Chia Tai Tianqing Pharmaceutical Group Co., Ltd., priority 2019, published 2022).

Type in all cases: in vitro ADME
Data set [1] addresses T1, CYP2C9 (Homo sapiens, UniProt P11712).
T1 construct: a human liver microsome solution; from tissue; host or cells: human liver microsomes
As to the kind of experiment: Inhibition against cytochrome P450 isoenzyme, human liver microsomes. The protocol: (§1) Experimental Example 6: Study on Inhibition Against Cytochrome P450 Isoenzyme
(§2) The inhibition of the test compounds against different subtypes of the human cytochrome P450 isoenzyme was determined. Test compounds, a standard inhibitor (100×final concentration) and a mixed substrate working solution were prepared; the microsomes frozen in a refrigerator at −80° C. were taken out and thawed. 2 μL of a solution of the test compound and the standard inhibitor was added to corresponding wells, and 2 μL of a corresponding solvent was added to a non-inhibitor control (NIC) well and a blank control (Blank) well; then, 20 μL of a solution of mixed substrate was added to corresponding wells except for the Blank well (adding 20 μL of PB to the Blank well); a human liver microsome solution (marking the date after use and immediately putting back to a refrigerator) was prepared and then added to all wells at 158 μL per well; the sample plate was put into a 37° C. water bath for pre-incubation, and then a coenzyme factor (NADPH) solution was prepared; after 10 min, the NADPH solution was added to all the wells at 20 μL per well, and the sample plate was shaken to mix the mixture well and then incubated in a 37° C. water bath for 10 min; at corresponding time points, 400 μL of cold acetonitrile solution (internal standard: 200 ng/mL tolbutamide and labetalol) was added to stop the reaction; after being mixed well, the mixture in the sample plate was centrifuged at 4,000 rpm for 20 min to precipitate proteins; 200 μL of supernatant was collected and added into 100 μL of water, and the mixture was mixed well and then assayed by LC/MS/MS.
In general terms: Microsomes from liver hold many membrane-bound enzymes, among them those of drug oxidation.

The target in data set [2] is T2, CYP3A4-M (Homo sapiens, UniProt P08684).
T2 construct: a human liver microsome solution; from tissue; host or cells: human liver microsomes
T2 sequence (P08684 whole entry): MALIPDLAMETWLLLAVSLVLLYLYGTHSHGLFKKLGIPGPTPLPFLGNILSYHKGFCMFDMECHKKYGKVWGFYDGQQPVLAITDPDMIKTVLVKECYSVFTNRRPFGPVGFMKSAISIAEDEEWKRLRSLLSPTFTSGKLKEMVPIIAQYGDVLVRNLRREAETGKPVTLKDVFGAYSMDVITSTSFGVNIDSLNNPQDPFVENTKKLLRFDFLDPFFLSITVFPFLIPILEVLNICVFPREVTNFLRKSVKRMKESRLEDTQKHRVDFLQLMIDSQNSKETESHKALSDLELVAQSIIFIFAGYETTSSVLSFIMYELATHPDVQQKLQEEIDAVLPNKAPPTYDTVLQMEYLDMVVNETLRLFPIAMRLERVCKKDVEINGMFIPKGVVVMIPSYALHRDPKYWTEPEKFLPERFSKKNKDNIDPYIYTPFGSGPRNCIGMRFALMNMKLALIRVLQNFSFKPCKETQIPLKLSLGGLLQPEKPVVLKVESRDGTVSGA
The description is as above. How it is done:
as §1, §2

For data set [3], the target named is T3, CYP2C19 (Homo sapiens, UniProt P33261).
T3 construct: a human liver microsome solution; from tissue; host or cells: human liver microsomes
T3 sequence (P33261 whole entry): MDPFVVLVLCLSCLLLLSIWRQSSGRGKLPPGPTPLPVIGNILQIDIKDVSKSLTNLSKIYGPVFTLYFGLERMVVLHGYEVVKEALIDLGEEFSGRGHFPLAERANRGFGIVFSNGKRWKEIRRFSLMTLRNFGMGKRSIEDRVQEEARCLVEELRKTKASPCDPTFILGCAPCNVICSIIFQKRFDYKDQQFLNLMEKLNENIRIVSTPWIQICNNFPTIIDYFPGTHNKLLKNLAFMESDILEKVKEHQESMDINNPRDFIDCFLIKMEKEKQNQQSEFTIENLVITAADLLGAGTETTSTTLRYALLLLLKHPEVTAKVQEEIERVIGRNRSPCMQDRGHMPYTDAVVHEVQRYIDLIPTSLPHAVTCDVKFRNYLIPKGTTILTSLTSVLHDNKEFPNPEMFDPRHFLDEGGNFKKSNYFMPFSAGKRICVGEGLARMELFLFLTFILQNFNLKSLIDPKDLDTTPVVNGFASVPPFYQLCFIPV
The description is as above. The protocol:
as §1, §2

Data set [4] has as its target T4, CYP2D6 (Homo sapiens, UniProt P10635).
T4 construct: a human liver microsome solution; from tissue; host or cells: human liver microsomes
The description is as above. How it is done: as §1, §2

The target of data set [5] is T5, CYP1A2 (Homo sapiens, UniProt P05177).
T5 construct: a human liver microsome solution; from tissue; host or cells: human liver microsomes
T5 sequence (P05177 1-516): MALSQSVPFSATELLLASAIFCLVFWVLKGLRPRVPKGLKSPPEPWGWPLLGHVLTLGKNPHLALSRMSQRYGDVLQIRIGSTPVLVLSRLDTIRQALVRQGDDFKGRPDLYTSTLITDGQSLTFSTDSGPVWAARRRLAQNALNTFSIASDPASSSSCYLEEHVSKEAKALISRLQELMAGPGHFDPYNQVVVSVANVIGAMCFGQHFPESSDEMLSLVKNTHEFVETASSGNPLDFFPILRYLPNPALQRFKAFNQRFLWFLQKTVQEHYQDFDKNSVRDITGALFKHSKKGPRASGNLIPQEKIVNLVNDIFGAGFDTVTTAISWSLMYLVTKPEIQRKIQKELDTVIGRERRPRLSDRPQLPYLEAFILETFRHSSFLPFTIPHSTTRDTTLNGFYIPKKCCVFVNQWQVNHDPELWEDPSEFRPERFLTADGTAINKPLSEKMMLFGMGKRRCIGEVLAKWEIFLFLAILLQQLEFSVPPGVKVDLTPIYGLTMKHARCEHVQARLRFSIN
The data set is described as above. The protocol: as §1, §2

The nature of data set [6]: Plasma protein binding rate, CD-1 mouse plasma (equilibrium dialysis). The note with it: CD-1 mice plasma, dialysis 4 h at 37° C. The protocol:
Experimental Example 5: Study on Plasma Protein Binding Rate
The protein binding rates of the compounds disclosed herein in plasma of human, CD-1 mice and SD rats were determined. 796 μL of blank plasma was taken from human, CD-1 mice and SD rats, and added with 4 μL of test compound working solution (400. μM) or warfarin working solution (400 μM) to achieve a final concentration of 2 μM of both the test compound and the warfarin in the plasma sample. The samples were mixed well. The final concentration of organic phase DMSO was 0.5%; 50 μL of test compound and warfarin plasma sample was pipetted into a sample receiving plate (three parallels), and a corresponding volume of blank plasma or buffer was immediately added such that the final volume of each sample well was 100 μL. The volume ratio of plasma to dialysis buffer was 1:1, and 400 μL of stop solution was added to these samples, which were used as TO samples for determination of recovery rate and stability. The TO samples were stored at 2-8° C. for subsequent treatment with other dialyzed samples; 150 μL of the test compound and warfarin plasma sample was added to a drug delivery end of each dialysis well, and 150 μL of blank dialysis buffer was added to a corresponding receiving end of the dialysis well. The dialysis plate was then sealed with a gas permeable membrane and placed in a humid, 5% CO2 incubator and incubated at 37° C. for 4 h while shaking at about 100 rpm. After the dialysis was completed, 50 μL of the dialyzed buffer sample and dialyzed plasma sample were pipetted to a new sample receiving plate. A corresponding volume of corresponding blank plasma or buffer was added to the samples such that the final volume of each sample well was 100 μL, and the volume ratio of plasma to dialysis buffer was 1:1. All samples were subjected to LC/MS analysis after protein precipitation, and the protein binding rates and the recovery rates were calculated by the following formulas: protein unbinding rate (%)=100×drug concentration passing through dialysis membrane/drug concentration not passing through dialysate; protein binding rate (%)=100−protein unbinding rate (%); recovery rate (%)=100×(drug concentration passing through dialysis membrane+drug concentration not passing through dialysate)/total drug concentration before dialysis.
On the technique in general: In equilibrium dialysis only unbound substance equilibrates across the membrane.

T1 sequence (P11712 whole entry): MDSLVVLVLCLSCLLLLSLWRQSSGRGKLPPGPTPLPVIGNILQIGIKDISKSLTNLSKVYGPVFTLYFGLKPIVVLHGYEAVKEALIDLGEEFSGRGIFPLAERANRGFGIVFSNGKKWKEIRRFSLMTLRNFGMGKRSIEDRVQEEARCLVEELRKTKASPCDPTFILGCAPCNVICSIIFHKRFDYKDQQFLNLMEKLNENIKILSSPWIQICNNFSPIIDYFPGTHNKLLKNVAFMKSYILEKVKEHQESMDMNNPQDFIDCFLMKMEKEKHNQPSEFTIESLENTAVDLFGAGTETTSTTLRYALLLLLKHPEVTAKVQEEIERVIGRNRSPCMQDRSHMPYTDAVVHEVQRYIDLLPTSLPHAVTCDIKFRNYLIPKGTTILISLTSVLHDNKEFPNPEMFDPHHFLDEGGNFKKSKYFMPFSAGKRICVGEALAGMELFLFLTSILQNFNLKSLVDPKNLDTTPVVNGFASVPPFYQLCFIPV
T4 sequence (P10635 whole entry): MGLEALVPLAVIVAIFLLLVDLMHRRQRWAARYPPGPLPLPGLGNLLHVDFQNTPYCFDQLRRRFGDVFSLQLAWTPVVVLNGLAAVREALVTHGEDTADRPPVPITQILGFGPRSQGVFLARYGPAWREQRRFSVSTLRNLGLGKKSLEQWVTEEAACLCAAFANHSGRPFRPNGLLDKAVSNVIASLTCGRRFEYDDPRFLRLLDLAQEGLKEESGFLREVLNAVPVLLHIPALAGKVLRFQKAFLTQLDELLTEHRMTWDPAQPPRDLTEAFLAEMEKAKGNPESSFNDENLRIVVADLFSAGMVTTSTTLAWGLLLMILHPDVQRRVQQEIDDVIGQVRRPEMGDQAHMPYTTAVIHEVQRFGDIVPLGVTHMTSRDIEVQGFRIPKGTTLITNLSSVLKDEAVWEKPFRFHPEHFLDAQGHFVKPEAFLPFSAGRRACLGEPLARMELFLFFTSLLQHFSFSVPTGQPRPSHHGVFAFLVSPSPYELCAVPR

Usually IC50 stands for the point on the concentration scale where inhibition reaches its midpoint. A low value points to inhibition by little substance. As a reminder, the fraction unbound is free concentration divided by total concentration. For `CC1(c2ccc(-c3[nH]c4cc(F)cc5c4c3CONC5=O)cc2)CCCN1` (stereo not shown) [Example 25_A], the concentration for half-maximal inhibition (IC50) in data set [1] is above 50 µM; in data set [2], 32.9 µM; in data set [3], 8.33 µM; in data set [4] it was 11.6 µM; in data set [5], above 50 µM. For the same compound, the fraction unbound at 4 h, 2 μM in data set [6] is 0.104.

As for `O=C1NOCc2c(-c3ccc(C4CCCN4)cc3)[nH]c3cc(F)cc1c23` (single isomer, unassigned) [Example 24_A], the half-maximal inhibitory concentration (IC50) in data set [1] is above 50 µM; in data set [2] it was above 50 µM; in data set [3], 17.2 µM; in data set [4], 6.98 µM; in data set [5], 29.5 µM. In data set [6], this compound gave an unbound share (fraction unbound) at 4 h, 2 μM of 0.037.

In data set [6], `CC1(c2ccc(-c3[nH]c4cccc5c4c3CONC5=O)cc2)CCCN1` (stereo not shown) [Example 6_A] gave a fraction unbound at 4 h, 2 μM of 0.208.

`O=C1NOCc2c(-c3ccc(C4CCCN4)c(F)c3)[nH]c3cccc1c23` (stereo not shown) [Example 11_A]: the half-inhibitory concentration (IC50) in data set [1] is above 50 µM; in data set [2], 35 µM; in data set [3], 15.5 µM; in data set [4], 19.2 µM; in data set [5], above 50 µM. In data set [6], this compound gave a fraction unbound at 4 h, 2 μM of 0.101.

With `CC1(c2ccc(-c3[nH]c4cc(F)cc5c4c3CONC5=O)cc2F)CCCN1` (single isomer, unassigned) [Example 26_A], the IC50 was 49.7 µM in data set [1]; 14.1 µM in data set [2]; 3.31 µM in data set [3]; 20.2 µM in data set [4]; above 50 µM in data set [5]. In data set [6], this compound had a fraction unbound at 4 h, 2 μM of 0.08.
